In patent publication US20080095834A1, “Mitochondriotropic Phospholipid Vesicles” (priority 2005, published 2008):

System: COLO205 colon cancer cells
Test: Apoptotic DNA laddering, DNA gel separation analysis
Type: cell-based
Details: 18 hrs, ceramide 25 μM
Method: FIG. 8 represents a micrograph of DNA gel separation analysis of COLO205 cells incubated with C6 ceramide-loaded mitochondriotropic liposomes according to the invention for 18 hrs, followed by extraction of their DNA. The concentration of ceramide in all samples was 25 μM. Lane A—DNA marker; lane B—untreated control; lane C—ceramide-loaded plain liposomes; lane D—ceramide loaded STPP liposomes according to the invention; lane E—free ceramide. Black arrows indicate the apoptotic DNA ladder. Total amount of DNA was identical in all lanes; and
FIG. 8 represents a micrograph of DNA gel separation analysis of cells of the colon cancer cell line COLO205 incubated with C6 ceramide-loaded mitochondriotropic liposomes according to the invention for 18 hrs, followed by extraction of their DNA. The concentration of ceramide in all samples was 25 μM. Lane A—DNA marker; lane B—untreated control; lane C—ceramide-loaded plain liposomes; lane D—ceramide loaded STPP liposomes according to the invention; lane E—free ceramide. Black arrows indicate the apoptotic DNA ladder. The total amount of DNA was identical in all lanes.

SMILES: CCCCCCCCCCCCC/C=C/[C@@H](O)[C@H](CO)NC(=O)CCCCC [free ceramide, C6 ceramide]
- DNA laddering typical of apoptosis: nor cells treated with free ceramide (Lane E, FIG. 8) showed the DNA laddering typical of apoptosis
